# Experimental data: ChEMBL document CHEMBL5260810, “Inhibition of bromodomain-containing protein 9 for the prevention of epigenetically-defined drug resistance” (Bioorg Med Chem Lett, 2017)
# Target: Tyrosine-protein kinase ABL1 (Homo sapiens) (UniProt P00519)
# Assay: Inhibition of Abl (unknown origin) at 1 uM relative to control
# Conditions: not given
# Chain of Tyrosine-protein kinase ABL1 (Homo sapiens) (P00519 whole entry): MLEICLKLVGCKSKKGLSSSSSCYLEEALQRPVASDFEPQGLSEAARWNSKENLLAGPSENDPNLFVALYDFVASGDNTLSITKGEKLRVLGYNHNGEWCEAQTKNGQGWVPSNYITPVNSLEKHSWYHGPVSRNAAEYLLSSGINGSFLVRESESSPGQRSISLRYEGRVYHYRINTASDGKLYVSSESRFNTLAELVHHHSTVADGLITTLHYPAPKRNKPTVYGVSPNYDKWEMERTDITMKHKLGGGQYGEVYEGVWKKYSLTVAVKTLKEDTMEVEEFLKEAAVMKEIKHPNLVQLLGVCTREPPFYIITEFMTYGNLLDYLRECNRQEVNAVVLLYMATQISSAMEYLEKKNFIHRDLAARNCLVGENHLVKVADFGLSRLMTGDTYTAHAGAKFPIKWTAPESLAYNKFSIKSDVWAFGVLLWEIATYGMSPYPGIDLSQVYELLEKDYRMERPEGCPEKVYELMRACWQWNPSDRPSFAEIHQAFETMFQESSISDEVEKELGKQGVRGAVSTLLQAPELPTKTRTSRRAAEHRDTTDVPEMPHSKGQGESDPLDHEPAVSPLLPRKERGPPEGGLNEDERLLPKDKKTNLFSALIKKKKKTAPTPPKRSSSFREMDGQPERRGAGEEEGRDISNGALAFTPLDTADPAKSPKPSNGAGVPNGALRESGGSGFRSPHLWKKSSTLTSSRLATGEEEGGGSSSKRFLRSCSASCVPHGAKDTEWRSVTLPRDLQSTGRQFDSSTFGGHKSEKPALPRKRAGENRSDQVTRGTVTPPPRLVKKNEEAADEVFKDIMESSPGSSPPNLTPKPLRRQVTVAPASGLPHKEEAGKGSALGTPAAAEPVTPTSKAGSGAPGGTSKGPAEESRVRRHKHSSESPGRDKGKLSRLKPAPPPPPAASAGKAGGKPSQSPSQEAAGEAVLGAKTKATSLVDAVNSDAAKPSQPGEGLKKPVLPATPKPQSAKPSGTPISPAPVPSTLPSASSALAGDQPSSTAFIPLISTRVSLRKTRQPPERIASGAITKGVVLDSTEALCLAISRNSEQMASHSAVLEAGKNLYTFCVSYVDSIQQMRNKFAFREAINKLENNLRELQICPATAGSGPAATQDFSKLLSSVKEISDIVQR
row,Compound,inhibition [%]
1,C/C=C/Cn1cc(-c2cc(OC)c(C(=O)N3CCOCC3)cc2OC)c2cc(C)[nH]c2c1=O,11

# Target: Bromodomain-containing protein 4 (Homo sapiens, UniProt O60885)
# Assay: Binding affinity to full length BRD4 short isoform (unknown origin) by BROMOscan assay
# Conditions: not given
row,Compound,Kd [nM]
1,C/C=C/Cn1cc(-c2cc(OC)c(C(=O)N3CCOCC3)cc2OC)c2cc(C)[nH]c2c1=O,> 10000

# Test system: JeKo-1
# Assay: Cytotoxicity against human JeKo-1 cells measured after 8 days
# Type: functional, cell-based
# Conditions: JeKo-1, 192 h
row,Compound,IC50 [nM]
1,C/C=C/Cn1cc(-c2cc(OC)c(C(=O)N3CCOCC3)cc2OC)c2cc(C)[nH]c2c1=O,2000

# Target: Ribosomal protein S6 kinase alpha-2 (Homo sapiens) (UniProt Q15349)
# Assay: Inhibition of RSK3 (unknown origin) at 1 uM relative to control
# Conditions: not given
row,Compound,inhibition [%]
1,C/C=C/Cn1cc(-c2cc(OC)c(C(=O)N3CCOCC3)cc2OC)c2cc(C)[nH]c2c1=O,3.5

# Test system: not listed separately
# Assay: Cytotoxicity against human HCC2279 cells measured after 8 days
# Type: functional, cell-based
# Conditions: HCC2279, 192 h
row,Compound,IC50 [nM]
1,C/C=C/Cn1cc(-c2cc(OC)c(C(=O)N3CCOCC3)cc2OC)c2cc(C)[nH]c2c1=O,2000

# Target: Transcription initiation factor TFIID subunit 1 (Homo sapiens, UniProt P21675)
# Assay: Displacement of biotinylated small-molecule ligand from recombinant His-tagged TAF1 bromodomain 2 (unknown origin) measured after 10 mins by TR-FRET assay
# Conditions: not given
row,Compound,IC50 [nM]
1,C/C=C/Cn1cc(-c2cc(OC)c(C(=O)N3CCOCC3)cc2OC)c2cc(C)[nH]c2c1=O,> 20000

# Test system: LNCaP
# Assay: Cytotoxicity against human LNCaP/Ner cells measured after 8 days
# Type: functional, cell-based
# Conditions: 192 h
row,Compound,IC50 [nM]
1,C/C=C/Cn1cc(-c2cc(OC)c(C(=O)N3CCOCC3)cc2OC)c2cc(C)[nH]c2c1=O,2000

# Test system: UMC-11
# Assay: Cytotoxicity against human UMC-11 cells measured after 8 days
# Type: functional, cell-based
# Conditions: UMC-11, 192 h
row,Compound,IC50 [nM]
1,C/C=C/Cn1cc(-c2cc(OC)c(C(=O)N3CCOCC3)cc2OC)c2cc(C)[nH]c2c1=O,2000

# Test system: not listed separately
# Assay: Cytotoxicity against human NCI-H2023 cells measured after 8 days
# Type: functional, cell-based
# Conditions: NCI-H2023, 192 h
row,Compound,IC50 [nM]
1,C/C=C/Cn1cc(-c2cc(OC)c(C(=O)N3CCOCC3)cc2OC)c2cc(C)[nH]c2c1=O,2000

# Target: Chromatin remodeling regulator CECR2 (Homo sapiens, UniProt Q9BXF3)
# Assay: Displacement of biotinylated small-molecule ligand from recombinant His-tagged CECR2 (unknown origin) measured after 10 mins by TR-FRET assay
# Conditions: not given
# Chain of Chromatin remodeling regulator CECR2 (Q9BXF3 whole entry): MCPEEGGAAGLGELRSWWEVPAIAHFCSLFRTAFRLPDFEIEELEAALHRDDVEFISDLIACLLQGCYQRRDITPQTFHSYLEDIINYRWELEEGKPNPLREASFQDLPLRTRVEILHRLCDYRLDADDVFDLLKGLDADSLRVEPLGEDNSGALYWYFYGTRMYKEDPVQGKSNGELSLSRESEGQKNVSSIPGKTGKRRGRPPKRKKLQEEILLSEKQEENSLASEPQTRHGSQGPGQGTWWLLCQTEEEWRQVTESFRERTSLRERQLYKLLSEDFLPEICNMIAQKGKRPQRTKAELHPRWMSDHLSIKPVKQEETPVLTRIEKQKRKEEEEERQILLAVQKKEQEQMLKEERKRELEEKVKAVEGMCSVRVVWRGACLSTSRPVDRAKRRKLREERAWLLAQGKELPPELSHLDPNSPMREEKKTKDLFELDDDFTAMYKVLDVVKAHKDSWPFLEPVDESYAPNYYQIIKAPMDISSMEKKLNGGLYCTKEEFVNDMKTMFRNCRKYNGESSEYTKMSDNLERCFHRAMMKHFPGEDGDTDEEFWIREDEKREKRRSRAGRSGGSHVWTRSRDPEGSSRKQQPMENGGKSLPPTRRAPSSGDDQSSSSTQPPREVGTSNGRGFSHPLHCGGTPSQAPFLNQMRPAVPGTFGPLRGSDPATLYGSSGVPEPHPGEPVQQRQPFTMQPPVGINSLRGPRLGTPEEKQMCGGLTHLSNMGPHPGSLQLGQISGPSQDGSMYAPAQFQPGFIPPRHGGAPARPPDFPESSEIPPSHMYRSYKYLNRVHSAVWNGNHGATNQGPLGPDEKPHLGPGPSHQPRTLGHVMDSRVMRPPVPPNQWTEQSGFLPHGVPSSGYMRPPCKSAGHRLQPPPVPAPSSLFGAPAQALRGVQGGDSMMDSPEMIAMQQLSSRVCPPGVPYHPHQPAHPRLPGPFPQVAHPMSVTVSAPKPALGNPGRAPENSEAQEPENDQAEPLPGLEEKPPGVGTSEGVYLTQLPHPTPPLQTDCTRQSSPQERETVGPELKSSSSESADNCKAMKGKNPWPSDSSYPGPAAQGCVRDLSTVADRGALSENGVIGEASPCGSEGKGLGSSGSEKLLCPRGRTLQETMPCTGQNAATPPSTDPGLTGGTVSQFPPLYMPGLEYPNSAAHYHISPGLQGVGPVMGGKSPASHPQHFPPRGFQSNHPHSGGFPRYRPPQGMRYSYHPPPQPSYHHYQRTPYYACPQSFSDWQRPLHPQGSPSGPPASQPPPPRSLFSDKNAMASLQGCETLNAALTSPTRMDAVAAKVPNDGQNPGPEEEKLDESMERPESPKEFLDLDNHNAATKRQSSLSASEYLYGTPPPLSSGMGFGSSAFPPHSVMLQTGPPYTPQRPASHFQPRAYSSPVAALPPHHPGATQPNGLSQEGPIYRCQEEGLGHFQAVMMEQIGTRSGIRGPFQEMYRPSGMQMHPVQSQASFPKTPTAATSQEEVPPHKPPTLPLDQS
row,Compound,IC50 [nM]
1,C/C=C/Cn1cc(-c2cc(OC)c(C(=O)N3CCOCC3)cc2OC)c2cc(C)[nH]c2c1=O,2400

# Target: T1, Interleukin-1 receptor-associated kinase 4 (Homo sapiens) (UniProt Q9NWZ3)
# T1 sequence (whole entry): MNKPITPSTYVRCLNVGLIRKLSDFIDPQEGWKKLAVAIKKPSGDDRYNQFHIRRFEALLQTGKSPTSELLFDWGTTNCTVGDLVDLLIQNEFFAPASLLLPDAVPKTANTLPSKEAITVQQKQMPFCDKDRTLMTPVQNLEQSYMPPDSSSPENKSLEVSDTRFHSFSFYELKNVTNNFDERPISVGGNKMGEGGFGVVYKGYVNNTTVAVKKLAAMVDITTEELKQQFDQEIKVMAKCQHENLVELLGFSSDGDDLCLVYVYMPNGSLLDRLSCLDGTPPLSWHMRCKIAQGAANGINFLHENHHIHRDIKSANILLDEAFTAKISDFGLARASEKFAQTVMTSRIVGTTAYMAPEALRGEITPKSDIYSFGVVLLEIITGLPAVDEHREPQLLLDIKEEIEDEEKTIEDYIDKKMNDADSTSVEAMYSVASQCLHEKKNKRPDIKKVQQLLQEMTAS
# Assay: Inhibition of IRAK4 (unknown origin) at 1 uM relative to control
# Conditions: not given
row,Compound,inhibition [%]
1,C/C=C/Cn1cc(-c2cc(OC)c(C(=O)N3CCOCC3)cc2OC)c2cc(C)[nH]c2c1=O,-3.5

# Test system: NCI-H1838
# Assay: Cytotoxicity against human NCI-H1838 cells measured after 8 days
# Type: functional, cell-based
# Conditions: NCI-H1838, 192 h
row,Compound,IC50 [nM]
1,C/C=C/Cn1cc(-c2cc(OC)c(C(=O)N3CCOCC3)cc2OC)c2cc(C)[nH]c2c1=O,2000

# Target: Serine/threonine-protein kinase pim-1 (Homo sapiens) (UniProt P11309)
# Assay: Inhibition of PIM1 (unknown origin) at 1 uM relative to control
# Conditions: not given
# Chain of Serine/threonine-protein kinase pim-1 (Homo sapiens) (P11309 whole entry, looked up): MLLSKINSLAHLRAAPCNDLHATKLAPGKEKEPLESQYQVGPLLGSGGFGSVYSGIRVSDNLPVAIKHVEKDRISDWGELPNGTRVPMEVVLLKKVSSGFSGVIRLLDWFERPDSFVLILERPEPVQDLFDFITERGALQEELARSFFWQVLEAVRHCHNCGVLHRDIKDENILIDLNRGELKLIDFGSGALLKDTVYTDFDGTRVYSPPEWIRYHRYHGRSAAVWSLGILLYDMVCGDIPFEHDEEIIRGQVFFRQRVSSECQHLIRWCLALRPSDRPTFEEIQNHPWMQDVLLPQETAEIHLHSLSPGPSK
row,Compound,inhibition [%]
1,C/C=C/Cn1cc(-c2cc(OC)c(C(=O)N3CCOCC3)cc2OC)c2cc(C)[nH]c2c1=O,2

# Test system: not listed separately
# Assay: Cytotoxicity against human SNU-719 cells measured after 8 days
# Type: functional, cell-based
# Conditions: SNU-719, 192 h
row,Compound,IC50 [nM]
1,C/C=C/Cn1cc(-c2cc(OC)c(C(=O)N3CCOCC3)cc2OC)c2cc(C)[nH]c2c1=O,2000

# Test system: BJAB
# Assay: Cytotoxicity against human BJAB cells measured after 8 days
# Type: functional, cell-based
# Conditions: 192 h
row,Compound,IC50 [nM]
1,C/C=C/Cn1cc(-c2cc(OC)c(C(=O)N3CCOCC3)cc2OC)c2cc(C)[nH]c2c1=O,2000

# Target: Adrenergic receptor alpha-1 (Rattus norvegicus) (UniProt P15823+P23944+P43140)
# Assay: Displacement of [3H]-prazosin from rat alpha1 adrenoceptor at 10 uM after 60 mins by scintillation counting analysis relative to control
# Type: protein assay
# Conditions: not given
row,Compound,Activity [%]
1,C/C=C/Cn1cc(-c2cc(OC)c(C(=O)N3CCOCC3)cc2OC)c2cc(C)[nH]c2c1=O,3

# Test system: SR
# Assay: Cytotoxicity against human SR cells measured after 8 days
# Type: functional, cell-based
# Conditions: 192 h
row,Compound,IC50 [nM]
1,C/C=C/Cn1cc(-c2cc(OC)c(C(=O)N3CCOCC3)cc2OC)c2cc(C)[nH]c2c1=O,2000

# Test system: MC116
# Assay: Cytotoxicity against human MC116 cells measured after 8 days
# Type: functional, cell-based
# Conditions: MC116, 192 h
row,Compound,IC50 [nM]
1,C/C=C/Cn1cc(-c2cc(OC)c(C(=O)N3CCOCC3)cc2OC)c2cc(C)[nH]c2c1=O,2000

# Target: Protein polybromo-1 (Homo sapiens, UniProt Q86U86)
# Assay: Binding affinity to human partial length PBRM1 bromodomain 1 (S178 to E291 residues) expressed in bacterial expression system by BROMOscan assay
# Conditions: not given
# Chain of Protein polybromo-1 (Q86U86 whole entry, the tested form may be a part): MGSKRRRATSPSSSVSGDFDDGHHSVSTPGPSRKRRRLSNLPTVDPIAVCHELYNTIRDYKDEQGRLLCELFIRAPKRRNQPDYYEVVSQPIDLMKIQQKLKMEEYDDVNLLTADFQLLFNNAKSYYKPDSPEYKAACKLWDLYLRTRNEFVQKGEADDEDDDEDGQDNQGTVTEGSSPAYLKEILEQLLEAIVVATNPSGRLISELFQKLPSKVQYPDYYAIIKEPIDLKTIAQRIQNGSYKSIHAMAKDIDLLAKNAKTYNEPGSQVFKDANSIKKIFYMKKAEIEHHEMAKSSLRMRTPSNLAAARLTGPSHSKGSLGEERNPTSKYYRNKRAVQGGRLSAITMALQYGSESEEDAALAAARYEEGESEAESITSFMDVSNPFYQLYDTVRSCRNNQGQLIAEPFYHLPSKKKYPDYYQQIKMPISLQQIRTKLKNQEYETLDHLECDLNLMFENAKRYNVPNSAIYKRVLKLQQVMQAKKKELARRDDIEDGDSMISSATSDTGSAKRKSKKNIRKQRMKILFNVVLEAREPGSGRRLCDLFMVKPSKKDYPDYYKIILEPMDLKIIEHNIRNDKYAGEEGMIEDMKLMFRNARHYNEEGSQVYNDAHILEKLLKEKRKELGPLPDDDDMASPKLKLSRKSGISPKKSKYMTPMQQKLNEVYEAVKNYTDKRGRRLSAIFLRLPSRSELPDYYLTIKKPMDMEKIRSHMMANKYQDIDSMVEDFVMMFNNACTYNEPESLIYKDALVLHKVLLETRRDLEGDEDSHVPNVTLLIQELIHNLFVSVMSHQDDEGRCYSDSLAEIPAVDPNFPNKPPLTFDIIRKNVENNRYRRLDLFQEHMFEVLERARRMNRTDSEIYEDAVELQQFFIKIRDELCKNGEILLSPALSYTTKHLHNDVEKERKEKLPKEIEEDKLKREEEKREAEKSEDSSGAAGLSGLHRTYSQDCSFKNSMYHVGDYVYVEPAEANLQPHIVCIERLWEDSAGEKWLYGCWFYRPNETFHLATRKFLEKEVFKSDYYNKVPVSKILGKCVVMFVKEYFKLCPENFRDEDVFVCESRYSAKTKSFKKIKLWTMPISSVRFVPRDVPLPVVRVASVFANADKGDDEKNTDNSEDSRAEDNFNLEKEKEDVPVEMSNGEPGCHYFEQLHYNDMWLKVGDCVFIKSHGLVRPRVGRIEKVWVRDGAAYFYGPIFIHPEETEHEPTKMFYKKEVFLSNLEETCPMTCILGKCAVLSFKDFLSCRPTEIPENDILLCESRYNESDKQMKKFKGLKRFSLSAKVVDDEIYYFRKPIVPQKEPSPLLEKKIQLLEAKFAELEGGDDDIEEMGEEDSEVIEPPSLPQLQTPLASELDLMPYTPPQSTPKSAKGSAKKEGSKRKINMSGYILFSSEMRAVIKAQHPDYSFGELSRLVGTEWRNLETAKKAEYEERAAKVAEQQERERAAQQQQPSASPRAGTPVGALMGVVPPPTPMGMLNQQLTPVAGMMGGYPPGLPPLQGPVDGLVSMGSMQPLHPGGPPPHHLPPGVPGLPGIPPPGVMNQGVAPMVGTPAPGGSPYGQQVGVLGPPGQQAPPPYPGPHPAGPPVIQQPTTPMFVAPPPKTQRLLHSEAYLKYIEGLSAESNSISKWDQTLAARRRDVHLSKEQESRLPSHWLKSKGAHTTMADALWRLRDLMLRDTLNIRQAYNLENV
row,Compound,Kd [nM]
1,C/C=C/Cn1cc(-c2cc(OC)c(C(=O)N3CCOCC3)cc2OC)c2cc(C)[nH]c2c1=O,> 10000

# Test system: AMO1
# Assay: Cytotoxicity against human AMO1 cells measured after 8 days
# Type: functional, cell-based
# Conditions: AMO1, 192 h
row,Compound,IC50 [nM]
1,C/C=C/Cn1cc(-c2cc(OC)c(C(=O)N3CCOCC3)cc2OC)c2cc(C)[nH]c2c1=O,2000

# Test system: HCC38
# Assay: Cytotoxicity against human HCC38 cells measured after 8 days
# Type: functional, cell-based
# Conditions: HCC38, 192 h
row,Compound,IC50 [nM]
1,C/C=C/Cn1cc(-c2cc(OC)c(C(=O)N3CCOCC3)cc2OC)c2cc(C)[nH]c2c1=O,2000

# Target: T2, Adenosine receptor A1 (Homo sapiens) (UniProt P30542)
# T2 sequence (whole entry): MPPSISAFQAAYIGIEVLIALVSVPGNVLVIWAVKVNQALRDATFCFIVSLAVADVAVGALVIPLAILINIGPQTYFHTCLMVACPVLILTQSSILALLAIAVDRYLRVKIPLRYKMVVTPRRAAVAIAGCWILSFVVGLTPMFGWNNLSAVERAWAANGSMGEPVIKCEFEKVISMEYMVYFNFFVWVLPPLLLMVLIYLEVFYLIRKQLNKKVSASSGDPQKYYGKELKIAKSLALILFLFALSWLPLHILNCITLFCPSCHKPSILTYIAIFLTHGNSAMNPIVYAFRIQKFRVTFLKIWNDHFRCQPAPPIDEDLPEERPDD
# Assay: Displacement of [3H]-DPCPX from human recombinant adenosine A1 receptor at 10 uM after 60 mins by scintillation counting analysis relative to control
# Conditions: not given
row,Compound,Activity [%]
1,C/C=C/Cn1cc(-c2cc(OC)c(C(=O)N3CCOCC3)cc2OC)c2cc(C)[nH]c2c1=O,-4

# Test system: HCC95
# Assay: Cytotoxicity against human HCC95 cells measured after 8 days
# Type: functional, cell-based
# Conditions: HCC95, 192 h
row,Compound,IC50 [nM]
1,C/C=C/Cn1cc(-c2cc(OC)c(C(=O)N3CCOCC3)cc2OC)c2cc(C)[nH]c2c1=O,2000

# Target: Histone acetyltransferase KAT2B (Homo sapiens, UniProt Q92831)
# Assay: Binding affinity to human partial length PCAF (G715 to D831 residues) expressed in bacterial expression system by BROMOscan assay
# Conditions: not given
row,Compound,Kd [nM]
1,C/C=C/Cn1cc(-c2cc(OC)c(C(=O)N3CCOCC3)cc2OC)c2cc(C)[nH]c2c1=O,> 10000

# Test system: NCI-H82
# Assay: Cytotoxicity against human NCI-H82 cells measured after 8 days
# Type: functional, cell-based
# Conditions: NCI-H82, 192 h
row,Compound,IC50 [nM]
1,C/C=C/Cn1cc(-c2cc(OC)c(C(=O)N3CCOCC3)cc2OC)c2cc(C)[nH]c2c1=O,2000

# Test system: COLO-678
# Assay: Cytotoxicity against human COLO-678 cells measured after 8 days
# Type: functional, cell-based
# Conditions: COLO-678, 192 h
row,Compound,IC50 [nM]
1,C/C=C/Cn1cc(-c2cc(OC)c(C(=O)N3CCOCC3)cc2OC)c2cc(C)[nH]c2c1=O,2000

# Organism: Rattus norvegicus
# Assay: Displacement of [125I]alpha-dendrotoxin from rat brain voltage-gated K channel at 10 uM after 60 mins by scintillation counting analysis relative to control
# Conditions: not given
row,Compound,Activity [%]
1,C/C=C/Cn1cc(-c2cc(OC)c(C(=O)N3CCOCC3)cc2OC)c2cc(C)[nH]c2c1=O,2

# Test system: DB
# Assay: Cytotoxicity against human DB cells measured after 8 days
# Type: functional, cell-based
# Conditions: 192 h
row,Compound,IC50 [nM]
1,C/C=C/Cn1cc(-c2cc(OC)c(C(=O)N3CCOCC3)cc2OC)c2cc(C)[nH]c2c1=O,2000

# Test system: HT
# Assay: Cytotoxicity against human HT cells measured after 8 days
# Type: functional, cell-based
# Conditions: 192 h
row,Compound,IC50 [nM]
1,C/C=C/Cn1cc(-c2cc(OC)c(C(=O)N3CCOCC3)cc2OC)c2cc(C)[nH]c2c1=O,2000

# Test system: MDA-MB-436
# Assay: Cytotoxicity against human MDA-MB-436 cells measured after 8 days
# Type: functional, cell-based
# Conditions: MDA-MB-436, 192 h
row,Compound,IC50 [nM]
1,C/C=C/Cn1cc(-c2cc(OC)c(C(=O)N3CCOCC3)cc2OC)c2cc(C)[nH]c2c1=O,2000

# Test system: HPAC
# Assay: Cytotoxicity against human HPAC cells measured after 8 days
# Type: functional, cell-based
# Conditions: 192 h
row,Compound,IC50 [nM]
1,C/C=C/Cn1cc(-c2cc(OC)c(C(=O)N3CCOCC3)cc2OC)c2cc(C)[nH]c2c1=O,2000

# Test system: NCI-H1581
# Assay: Cytotoxicity against human NCI-H1581 cells measured after 8 days
# Type: functional, cell-based
# Conditions: NCI-H1581, 192 h
row,Compound,IC50 [nM]
1,C/C=C/Cn1cc(-c2cc(OC)c(C(=O)N3CCOCC3)cc2OC)c2cc(C)[nH]c2c1=O,2000

# Target: Dual specificity mitogen-activated protein kinase kinase 1 (Homo sapiens) (UniProt Q02750)
# Assay: Inhibition of MEK1 (unknown origin) at 1 uM relative to control
# Conditions: not given
# Chain of Dual specificity mitogen-activated protein kinase kinase 1 (Homo sapiens) (Q02750 whole entry): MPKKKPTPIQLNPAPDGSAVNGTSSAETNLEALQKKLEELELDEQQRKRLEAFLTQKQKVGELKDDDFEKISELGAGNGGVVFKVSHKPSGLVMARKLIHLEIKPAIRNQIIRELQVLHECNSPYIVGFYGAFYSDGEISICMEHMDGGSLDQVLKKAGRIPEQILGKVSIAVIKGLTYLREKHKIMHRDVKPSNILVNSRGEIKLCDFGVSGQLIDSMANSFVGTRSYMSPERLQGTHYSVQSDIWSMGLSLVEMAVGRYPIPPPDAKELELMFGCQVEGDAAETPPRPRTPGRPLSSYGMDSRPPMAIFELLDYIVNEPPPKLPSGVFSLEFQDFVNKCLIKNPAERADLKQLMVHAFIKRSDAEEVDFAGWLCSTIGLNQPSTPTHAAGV
row,Compound,inhibition [%]
1,C/C=C/Cn1cc(-c2cc(OC)c(C(=O)N3CCOCC3)cc2OC)c2cc(C)[nH]c2c1=O,4

# Test system: Calu-3
# Assay: Cytotoxicity against human Calu-3 cells measured after 8 days
# Type: functional, cell-based
# Conditions: Calu-3, 192 h
row,Compound,IC50 [nM]
1,C/C=C/Cn1cc(-c2cc(OC)c(C(=O)N3CCOCC3)cc2OC)c2cc(C)[nH]c2c1=O,2000

# Test system: LNCaP
# Assay: Cytotoxicity against human LNCaP clone FGC cells measured after 8 days
# Type: functional, cell-based
# Conditions: 192 h
row,Compound,IC50 [nM]
1,C/C=C/Cn1cc(-c2cc(OC)c(C(=O)N3CCOCC3)cc2OC)c2cc(C)[nH]c2c1=O,2000

# Test system: Hs 294T
# Assay: Cytotoxicity against human Hs294T cells measured after 8 days
# Type: functional, cell-based
# Conditions: 192 h
row,Compound,IC50 [nM]
1,C/C=C/Cn1cc(-c2cc(OC)c(C(=O)N3CCOCC3)cc2OC)c2cc(C)[nH]c2c1=O,2000

# Target: 5-hydroxytryptamine receptor 4 (Homo sapiens) (UniProt Q13639)
# Assay: Inhibition of human 5HT4e at 10 uM relative to control
# Conditions: not given
row,Compound,inhibition [%]
1,C/C=C/Cn1cc(-c2cc(OC)c(C(=O)N3CCOCC3)cc2OC)c2cc(C)[nH]c2c1=O,-8
